US6833456B2, “Indolyl-urea derivatives of thienopyridines useful as antiangiogenic agents, and methods for their use” (Agouron Pharmaceuticals, Inc., priority 2002, dated 2004)

Key:
[1] = target: T1, unphosphorylated VEGF-R2Δ50 (FLVK) (Homo sapiens, UniProt P35968, DEL940-989/E990V); assay: VEGF-R2 coupled spectrophotometric assay, unphosphorylated construct (FLVK); type: biochemical; conditions: for inhibition at 0.05 µM: percent inhibition at 50 nM
T1 construct: VEGF-R2Δ50 contains residues 806-939 and 990-1171; made in house; host or cells: baculovirus/insect cell system
T1 sequence (P35968 with tags, fused parts or gaps DEL940-989/E990V limits assumed): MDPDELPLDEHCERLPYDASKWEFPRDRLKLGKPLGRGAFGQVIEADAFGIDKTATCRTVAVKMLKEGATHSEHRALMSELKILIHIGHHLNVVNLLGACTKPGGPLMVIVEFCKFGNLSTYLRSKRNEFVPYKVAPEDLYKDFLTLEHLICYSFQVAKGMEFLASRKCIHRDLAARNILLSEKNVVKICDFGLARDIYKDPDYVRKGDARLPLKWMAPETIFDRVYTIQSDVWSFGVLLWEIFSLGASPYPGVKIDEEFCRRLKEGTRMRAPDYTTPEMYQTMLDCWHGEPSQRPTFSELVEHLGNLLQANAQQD
In short: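 Human VEGF-R2Δ50 cytosolic kinase (residues 806-939/990-1171, E990V), baculovirus-expressed, unphosphorylated form. PK/LDH-coupled NADH oxidation at 340 nm with 20 mM poly(E4Y1), 3 mM ATP, 60 mM MgCl2, 2 mM MnCl2, 200 mM HEPES pH 7.5, 5-40 nM enzyme; Ki fitted by Morrison equation.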

Mouse PK assay = type: in vivo, B6 female mice; conditions: po; for AUC / Cmax: female, B6, mouse, plasma, 50 mg/kg; for Cmax: p.o., read-out: Mouse Cmax, po ng-h/mL
In short: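 Plasma levels were measured by HPLC with UV detection after acetonitrile precipitation, using extracted standards, in blood taken up to 4 h (0.5, 1, 2, 4 h) post-dose. Dosing: 50 mg/kg orally or intraperitoneally to two groups of four female B6 mice, vehicle PEG 400:acidified H2O 30:70 suspension.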

[2] = Human liver microsome (HLM) assay; type: in vitro ADME; conditions: human liver microsomes
Description: Compound metabolism in human liver microsomes was measured by LC-MS analytical assay procedures as follows. First, human liver microsomes (HLM) were thawed and diluted to 5 mg/mL with cold 100 mM potassium phosphate (KPO4) buffer. Appropriate amounts of KPO4 buffer, NADPH-regenerating solution (containing B-NADP, glucose-6-phosphate, glucose-6-phosphate dehydrogenase, and MgCl2), and HLM were preincubated in 13×100 mm glass tubes at 37° C. for 10 min. (3 tubes per test compound—triplicate). Test compound (5 μM final) was added to each tube to initiate reaction and was mixed by gentle vortexing, followed by incubation at 37° C. […] Samples were centrifuged at 4000 rpm for 20 min. to precipitate proteins and salt (Beckman Allegra 6KR, S/N ALK98DO6, #634). Supernatant was transferred to new 12×75 mm glass tubes and evaporated by Speed-Vac centrifugal vacuum evaporator. Samples were reconstituted in 200 μL 0.1% formic acid/acetonitrile (90/10) and vortexed vigorously to dissolve. The samples were then transferred to separate polypropylene microcentrifuge tubes and centrifuged at 14000×g for 10 min. (Fisher Micro 14, S/N M0017580). […]
The combined compound samples were injected into the LC-MS system, composed of a Hewlett-Packard HP1100 diode array HPLC and a Micromass Quattro II triple quadruple mass spectrometer operating in positive electrospray SIR mode (programmed to scan specifically for the molecular ion of each test compound). Each test compound peak was integrated at each timepoint. […]

## COC[C@@H]1CCCN1C(=O)c1cc2nccc(Oc3ccc4c(c3)cc(C)n4C(=O)NC3CC3)c2s1 [Example 4b, 5-(2-[(S)-2-(methoxymethyl)pyrrolidine-1-carbonyl]thieno[3,2-b]pyridin-7-yloxy)-2-methylindole-1-carboxylic acid cyclopropylamide]
[1]
  Ki: 0.13 nM
  inhibition at 0.05 µM: 97%
Mouse PK assay
  AUC: 3640 ng·h/mL
  Cmax: 2110 ng/mL
  Mouse Cmin, po: 108 ng/mL
[2]
  % remain (HLM-NADPH, 0.5 h): 70.9%

## CNC(=O)n1c(C)cc2cc(Nc3ccnc4cc(C(=O)N5CCC[C@H]5CO)sc34)ccc21 [Example 2b, 5-(2-[(S)-2-(hydroxymethyl)pyrrolidine-1-carbonyl]thieno[3,2-b]pyridin-7-ylamino)-2-methylindole-1-carboxylic acid methylamide]
[1]
  Ki: 1.03 nM
  inhibition at 0.05 µM: 85%
Mouse PK assay
  AUC: 2800 ng·h/mL
  Cmax: 1900 ng/mL
  Mouse Cmin, po: 10 ng/mL
[2]
  % remain (HLM-NADPH, 0.5 h): 92.1%
  % remain (HLM-UDPGA, 0.5 h): 104.8%

## CNC(=O)n1c(C)cc2cc(Nc3ccnc4cc(-c5nccn5C)sc34)ccc21 [Example 2a, 5-(2-[1-methyl-1H-imidazol-2-yl]thieno[3,2-b]pyridin-7-ylamino)-2-methylindole-1-carboxylic acid methylamide]
[1]
  Ki: 2.1 nM
  inhibition at 0.05 µM: 84%
Mouse PK assay
  AUC: 1170 ng·h/mL
  Cmax: 1010 ng/mL
  Mouse Cmin, po: 19 ng/mL
[2]
  % remain (HLM-NADPH, 0.5 h): 91.1%
  % remain (HLM-UDPGA, 0.5 h): 101.8%

## COC[C@@H]1CCCN1C(=O)c1cc2nccc(Nc3ccc4c(c3)cc(C)n4C(=O)NC3CC3)c2s1 [Example 2c, 5-(2-[(S)-2-(methoxymethyl)pyrrolidine-1-carbonyl]thieno[3,2-b]pyridin-7-ylamino)-2-methylindole-1-carboxylic acid cyclopropylamide]
[1]
  Ki: 0.56 nM
  inhibition at 0.05 µM: 97%
Mouse PK assay
  AUC: 6700 ng·h/mL
  Cmax: 3700 ng/mL
  Mouse Cmin, po: 35 ng/mL
[2]
  % remain (HLM-NADPH, 0.5 h): 76.2%

## COC[C@H]1CCCN1C(=O)c1cc2nccc(Nc3ccc4c(c3)cc(C)n4C(=O)NC3CC3)c2s1 [Example 1d, 5-[2-(2R-Methoxymethyl-pyrrolidine-1-carbonyl)-thieno[3,2-b]pyridin-7-ylamino]-2-methyl-indole-1-carboxylic acid cyclopropylamide]
[1]
  Ki: 1.1 nM
  inhibition at 0.05 µM: 97%
Mouse PK assay
  AUC: 5070 ng·h/mL
  Cmax: 2820 ng/mL
  Mouse Cmin, po: 32 ng/mL
[2]
  % remain (HLM-NADPH, 0.5 h): 85%

## CNC(=O)n1c(C)cc2cc(Nc3ccnc4cc(C(=O)N5CCC[C@H]5COC)sc34)ccc21 [Example 1t, 5-(2-[(S)-2-(methoxymethyl)pyrrolidine-1-carbonyl]thieno[3,2-b]pyridin-7-ylamino)-2-methylindole-1-carboxylic acid methylamide]
[1]
  Ki: 1.13 nM
  inhibition at 0.05 µM: 87%
Mouse PK assay
  AUC: 5860 ng·h/mL
  Cmax: 4650 ng/mL
  Mouse Cmin, po: 4 ng/mL
[2]
  % remain (HLM-NADPH, 0.5 h): 76.3%

## CNC(=O)n1c(C)cc2cc(Oc3ccnc4cc(C(=O)N5CC[C@H](O)C5)sc34)ccc21 [Example 9g, 5-[2-(3S-Hydroxy-pyrrolidine-1-carbonyl)-thieno[3,2-b]pyridin-7-yloxy]-2-methyl-indole-1-carboxylic acid methylamide]
[1]
  Ki: 0.243 nM
  inhibition at 0.05 µM: 98%
Mouse PK assay
  AUC: 9530 ng·h/mL
  Cmax: 4540 ng/mL

## CNC(=O)n1c(C)cc2cc(Oc3ccnc4cc(C(=O)N5CC[C@H](OC)C5)sc34)ccc21 [Example 4g, 5-[2-(3S-Methoxy-pyrrolidine-1-carbonyl)-thieno[3,2-b]pyridin-7-yloxy]-2-methyl-indole-1-carboxylic acid methylamide]
[1]
  Ki: 0.23 nM
  inhibition at 0.05 µM: 97%
Mouse PK assay
  AUC: 3620 ng·h/mL
  Cmax: 2280 ng/mL
  Mouse Cmin, po: 20 ng/mL

## Cc1cc2cc(Nc3ccnc4cc(C(=O)N5CCC[C@H]5CO)sc34)ccc2n1C(=O)NC1CC1 [Example 2e, 5-(2-[(S)-2-(hydroxymethyl)pyrrolidine-1-carbonyl]thieno[3,2-b]pyridin-7-ylamino)-2-methylindole-1-carboxylic acid cyclopropylamide]
[1]
  Ki: 0.16 nM
  inhibition at 0.05 µM: 95%
Mouse PK assay
  AUC: 43 ng·h/mL
  Cmax: 28 ng/mL
  Mouse Cmin, po: 0 ng/mL

## CO[C@H]1CCN(C(=O)c2cc3nccc(Oc4ccc5c(c4)cc(C)n5C(=O)NC4CC4)c3s2)C1 [Example 4h, 5-[2-(3S-Methoxy-pyrrolidine-1-carbonyl)-thieno[3,2-b]pyridin-7-yloxy]-2-methyl-indole-1-carboxylic acid cyclopropylamide]
[1]
  Ki: 1.6 nM
  inhibition at 0.05 µM: 91%
Mouse PK assay
  AUC: 2600 ng·h/mL
  Cmax: 657 ng/mL
  Mouse Cmin, po: 161 ng/mL

## C#CCNC(=O)n1c(C)cc2cc(Oc3ccnc4cc(C(=O)N5CC[C@H](OC)C5)sc34)ccc21 [Example 4f, 5-[2-(3S-Methoxy-pyrrolidine-1-carbonyl)-thieno[3,2-b]pyridin-7-yloxy]-2-methyl-indole-1-carboxylic acid prop-2-ynylamide]
[1]
  Ki: 0.85 nM
  inhibition at 0.05 µM: 95%
Mouse PK assay
  AUC: 15600 ng·h/mL
  Cmax: 8840 ng/mL
  Mouse Cmin, po: 112 ng/mL

## C#CCNC(=O)n1c(C)cc2cc(Nc3ccnc4cc(C(=O)N5CC[C@@H](O)C5)sc34)ccc21 [Example 1o, 5-[2-(3R-Hydroxy-pyrrolidine-1-carbonyl)-thieno[3,2-b]pyridin-7-ylamino]-2-methyl-indole-1-carboxylic acid prop-2-ynylamide]
[1]
  Ki: 0.37 nM
  inhibition at 0.05 µM: 96%
Mouse PK assay
  AUC: 219 ng·h/mL
  Cmax: 100 ng/mL
  Mouse Cmin, po: 6 ng/mL

## Cc1cc2cc(Nc3ccnc4cc(-c5nc(C(C)(C)O)cs5)sc34)ccc2n1C(=O)NC1CC1 [Example 3b, 5-{2-[4-(1-Hydroxy-1-methyl-ethyl)-thiazol-2-yl]-thieno[3,2-b]pyridin-7-ylamino}-2-methyl-indole-1-carboxylic acid cyclopropylamide]
[1]
  Ki: 0.21 nM
  inhibition at 0.05 µM: 95%
Mouse PK assay
  AUC: 18800 ng·h/mL
  Cmax: 11100 ng/mL
  Mouse Cmin, po: 252 ng/mL

## CNC(=O)n1c(C)cc2cc(Oc3ccnc4cc(C(=O)N5CCC[C@H]5COC)sc34)ccc21 [Example 4a, 5-(2-[(S)-2-(methoxymethyl)pyrrolidine-1-carbonyl]thieno[3,2-b]pyridin-7-yloxy)-2-methylindole-1-carboxylic acid methylamide]
[1]
  Ki: 1.1 nM
  inhibition at 0.05 µM: 96%
Mouse PK assay
  AUC: 703 ng·h/mL
  Cmax: 575 ng/mL
  Mouse Cmin, po: 3 ng/mL

## C#CCNC(=O)n1c(C)cc2cc(Oc3ccnc4cc(C(=O)N5CCC[C@H]5COC)sc34)ccc21 [Example 4c, 5-(2-[(S)-2-(methoxymethyl)pyrrolidine-1-carbonyl]thieno[3,2-b]pyridin-7-yloxy)-2-methylindole-1-carboxylic acid prop-2-ynylamide]
[1]
  Ki: 0.1 nM
  inhibition at 0.05 µM: 96%
Mouse PK assay
  AUC: 8310 ng·h/mL
  Cmax: 2760 ng/mL
  Mouse Cmin, po: 313 ng/mL
[2]
  % remain (HLM-NADPH, 0.5 h): 76.1%

## CNC(=O)n1c(C)cc2cc(Oc3ccnc4cc(C(=O)N5C[C@H](OC)C[C@H]5CO)sc34)ccc21 [Example 3o, 5-[2-(2-Hydroxymethyl-4-methoxy-pyrrolidine-1-carbonyl)-thieno[3,2-b]pyridin-7-yloxy]-2-methyl-indole-1-carboxylic acid methylamide]
[1]
  Ki: 1.35 nM
  inhibition at 0.05 µM: 93%
Mouse PK assay
  AUC: 2880 ng·h/mL
  Cmax: 2820 ng/mL
  Mouse Cmin, po: 20 ng/mL
